Experimental data from PubChem BioAssay (NCI).
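Five compound concentrations were applied to cells in 96-well plates for 48 hours; endpoints were derived by simple linear interpolation of the resulting dose-response curve. Here, GI50 denotes the concentration required for 50% inhibition of growth. TGI: concentration producing complete growth inhibition.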

How the values were obtained:
Assay in all cases: inhibition of tumour cell growth, NCI panel, 48 h
[1] = system: SK-MEL-28 melanoma
[2] = system: OVCAR-5 ovarian
[3] = system: HOP-62 NSCLC
[4] = system: M14 melanoma
[5] = system: NCI-H522 lung
[6] = system: RXF 393 renal
[7] = system: DU-145 prostate
[8] = system: KM12 colon
[9] = system: SK-MEL-2 melanoma
[10] = system: NCI-H23 lung

## CC1=C(c2cccc(O)c2)[C@H](c2ccc(OCCN3CC(CF)C3)cc2)Oc2ccc(O)cc21
[1]
  GI50: 5.3 µM
  TGI: 18 µM
[2]
  GI50: 12.4 µM
  TGI: 25 µM
[3]
  GI50: 11 µM
  TGI: 27.5 µM
[4]
  GI50: 2.93 µM
  TGI: 9.45 µM
[5]
  GI50: 16 µM
  TGI: 32.8 µM
[6]
  GI50: 3.46 µM
  TGI: 12.1 µM
[7]
  GI50: 4.18 µM
  TGI: 15 µM
[8]
  GI50: 6.44 µM
  TGI: 21.7 µM
[9]
  GI50: 7.2 µM
  TGI: 20.9 µM
[10]
  GI50: 11.2 µM
  TGI: 25.1 µM

## C[C@@H]1[C@H](C)N1CC(O)Cn1ccnc1[N+](=O)[O-] (stereo not given in full)
[1]
  TGI: > 100 µM
[2]
  TGI: > 100 µM
[3]
  TGI: > 100 µM
[4]
  TGI: > 100 µM
[5]
  TGI: > 100 µM
[6]
  TGI: > 100 µM
[7]
  TGI: > 100 µM
[8]
  TGI: > 100 µM
[9]
  TGI: > 100 µM
[10]
  TGI: > 100 µM

## COC1CC(O[C@H]2CC[C@@]3(C)[C@H](CC[C@@H]4[C@@H]3CC[C@]3(C)[C@@H](C5=CC(=O)OC5)[C@@H](OC(C)=O)C[C@]43O)C2)OC(C)C1O (stereo not given in full)
[1]
  GI50: < 0.01 µM
  TGI: < 0.01 µM
[2]
  GI50: < 0.01 µM
  TGI: < 0.01 µM
[3]
  GI50: < 0.01 µM
  TGI: < 0.01 µM
[4]
  GI50: < 0.01 µM
  TGI: < 0.0106 µM
[5]
  GI50: < 0.01 µM
  TGI: < 0.01 µM
[6]
  GI50: < 0.01 µM
  TGI: < 0.01 µM
[7]
  GI50: < 0.01 µM
  TGI: < 0.01 µM
[8]
  GI50: < 0.01 µM
  TGI: < 0.0106 µM
[9]
  GI50: < 0.01 µM
  TGI: < 0.0105 µM
[10]
  GI50: < 0.01 µM
  TGI: < 0.01 µM

## CC(C)(C)C(=O)OCC1C(=O)OCC1C(=O)N1Cc2cc3ccccc3nc2C1 (stereo not given)
[1]
  TGI: 10.8 µM
[2]
  TGI: 23.1 µM
[3]
  TGI: 22 µM
[4]
  TGI: 8.08 µM
[5]
  TGI: 2.2 µM
[6]
  TGI: 3.27 µM
[7]
  TGI: 30.2 µM
[8]
  TGI: 29.8 µM
[9]
  TGI: 22.1 µM
[10]
  TGI: 13.6 µM

## O=C1CCCCCCCCCCC1CN1CCCC1 (stereo not given)
[1]
  TGI: 55.6 µM
[2]
  TGI: > 100 µM
[3]
  TGI: 34.7 µM
[4]
  TGI: 47.2 µM
[5]
  TGI: > 100 µM
[6]
  TGI: 65.4 µM
[7]
  TGI: > 100 µM
[8]
  TGI: > 100 µM
[9]
  TGI: 99.7 µM
[10]
  TGI: > 100 µM

## C=C1C(O)C2C(=C(CC)C13CC3)C(=O)C(C)(C)C2OC (stereo not given)
[1]
  GI50: > 100 µM
  TGI: > 100 µM
[2]
  GI50: > 100 µM
  TGI: > 100 µM
[3]
  GI50: 90.8 µM
  TGI: > 100 µM
[4]
  GI50: 59.4 µM
  TGI: > 100 µM
[5]
  GI50: 37.6 µM
  TGI: > 100 µM
[6]
  GI50: > 100 µM
  TGI: > 100 µM
[7]
  GI50: 57.9 µM
  TGI: > 100 µM
[8]
  GI50: 60.9 µM
  TGI: > 100 µM
[9]
  GI50: > 100 µM
  TGI: > 100 µM
[10]
  GI50: 55.6 µM
  TGI: > 100 µM
